Source: patent publication US20060270019A1, “Method for producing lactic acid bacterium culture containing bacteriocin and a method for preserving food products for by using it” (Ajinomoto Co., Inc., priority 2003, published 2006)
Positions of bridges follow the written chain, without caps; N, C: chain ends. Non-standard residues stand in square brackets, D forms with d. No end group written: not given here.

Tests used:
Type in all cases: cell-based
[1] = system: Lactobacillus sakei strain JCM1157; experiment: Inhibitory zone of lactic acid bacteria on MRS agar plate containing protease (Umamizyme G), overlaid with indicator strain; details: Protease 0 U/ml, Nisin A spotted as 10 μl of 1000 IU/ml
Method: The collected lactic acid bacteria are cultivated in the heretofore described manner. Then, the lactic acid bacteria are inoculated and cultivated for 24 hours on a plate of MRS agar medium to which filtrated Umamizyme G (a protease derived from Aspergillus oryzaeproteases; Amano Enzyme Co) is added. Subsequently, the Lactobacilli AOAC medium (Table 3) into which an indicator strain is initially mixed is overlaid on the plate and cultivated for 24 hours, to form an inhibitory zone of the indicator strain.
Weissella sp. AJ110263 (FERM BP-10474) separated from fermented milk Matsoon and Pediococcus pentosaceus JCM5885, Pediococcus pentosaceus JCM5890, Lactobacillus plantarum JCM1149 and Lactobacillus salivarius obtained from the type cultures were initially cultivated followed by cultivation in the MRS medium (Table 1). […]
Lactococcus lactis NCDO497 (a nisinA producer) and Lactococcus lactis NCIMB702054 (a nisin Z producer) were cultivated in the MRS medium at 30° C. In the same manner as in Example 1, the antimicrobial activity was evaluated, using Lactobacillus sakei strain JCM1157 as an indicator strain.
Additionally, the antimicrobial activity was evaluated, by spotting 10 μl of a 1000 IU/ml solution of Nisin A, ICN Biomedical Inc. instead of using the nisin producer, on the plate of the MRS agar medium.

[2] = system: Bacillus subtilis IAM1381; experiment: Bacteriocin as substitute for salt in soy sauce manufacturing process: viable cell count of contaminating bacterium; details: soy sauce koji test, first day of fermentation up to day 7
Method: Soybean (10 g) and pure water (10 ml) were individually added into six Erlenmeyer flasks (200-ml volume) and sterilized in an autoclave at 120° C. for 30 minutes. After cooling, 0.04 g of koji mold(Purple 1, NO.1 bacterium for soy sauce) was added, and cultivated statically at 30° C. for 2 days. 40 ml of sterile pure water were added to cultivated sample (Sample No.1), 40 ml of salt solution which adjusted the salt content of the sample to 18% to Sample No.2, 40 ml of a culture supernatant of Lactococcus lactis NCIMB702054 (the bacterium producing nisin Z) to Sample No.3 and 40 ml of a culture supernatant of Weissella sp. AJ110263 (FERM BP-10474) to Sample No.4, 40 ml of a culture supernatant of Pediococcus pentosaseceus JCM5885 to Sample 5 and 40 ml of a culture supernatant of Lactobacillus salivarius JCM1231 to Sample 6. The resulting mixtures were then adjusted to pH 6.5 to 7.0, using 6N hydrochloric acid and 6N NaOH passed through a filter.
200 μl of Bacillus subtilis IAM1381 cultivated in the TSBYE medium by a shaker at 30° C. for 20 hours was additionally inoculated, mixed thoroughly and cultivated at 30° C. On days 1, 2 and 7 of the cultivation, the broth was collected to count the viable cells of Bacillus subtilis IAM1381 on the GAM agar medium (GAM bouillon “NISSUI”, Nissui Pharmaceutical Co., Ltd.). […]

[3] = system: Listeria innocua ATCC33090; experiment: Aging of ground beef inoculated with Listeria: viable cell count; details: first day of aging up to day 7
Text: The broths obtained by cultivating Lactococcus lactis NCIMB702054 (a strain producing NisinZ) and Weissella sp.AJ110263 (FERM BP-10474) in MRS culture media were adjusted to pH 5.5 with sodium hydroxide. Subsequently, the bacteria were removed from the pH adjusted culture liquid by centrifucation to obtain a supernatant. The broths containing lactic acid bacteria and the supernatants were used in the experiment described below.
5 g of ground meat of Black hair Japanese beef were individually put into six aseptic Falcon tubes (Becton Dickinson Co.50-ml volume) and 5 ml of saline were added to the meat(Sample No.1), 5 ml of 18% salt solution to Sample No.2, 5 ml of the supernatant of Lactococcus lactis NCIMB702054 to Sample No.3, 5 ml of the broth of Lactococcus lactis NCIMB702054 to Sample No.4, 5 ml of the supernatant of Weissella sp. AJ110263 to Sample No.5, 5 ml of the broth of Weissella sp. AJ110263 to Sample No.6. Further, Listeria innocua ATCC33090, statically cultivated in TSBYE medium at 37° C. for 24 hours, was added to the samples in the amount of 10^8 cfu/ml and the samples were aged at ambient temperature. The samples aged for one day and seven days were collected to count the viable cells of Listeria innocua ATCC33090 in the Listeria selection medium (Oxoid Inc.).

Row | Molecule | Diameter(mm) of Inhibitory Zone of Strain not producing PRB [1] [mm] | contamination by Bacillus subtilis IAM1381 (in words) [2] | contaminating Listeria innocua ATCC33090 count [3]
1 | Nisin A (I[dehydrobutyrine]SI[dehydroalanine]LCTPGCKTGALMGCNMKTATCHCSIHV[dehydroalanine]K; bridge 23-26, 13-19, 8-11, 25-28, 3-7; not fully specified (residues 3, 8, 13, 23, 25, bridges); UniProt P13068 24-57, looked up) [Nisin A, ICN Biomedical Inc., bacteriocin spotted instead of a nisin producer] | 30 |  | 
2 | [Cl-].[Na+] [salt, sodium chloride] |  | no contamination occurred | ≥ 10^5 cfu/ml
